Patent US20100324017A1, “ACYLGUANIDINE DERIVATIVE” (priority 2007, published 2010)
pKi: −log10 of the molar value.

Columns and labels:
MAP-induced overactivity = test: MAP (methane phetamine)-induced overactivity in mice, kinetic momentum by infrared sensor; type: in vivo; details: mouse, oral, dose 0.01 mg/kg; MAP 1 mg/kg i.p.; total 60 minutes, P<0.05
Experimental: (§1) Evaluation of Various Drugs Relative to a Drug for Increasing the Kinetic Momentum of Mice (Methane Phetamine, MK-801) (Method for Measuring a Kinetic Momentum by Discharge of an Infrared Ray)
(§2) The effect of improving the positive symptoms and the negative symptoms of schizophrenia by the compound (I) was evaluated by measuring the kinetic momentum that had been […] with administration of the compound in a model causing the symptoms by methane phetamine (which is hereinafter simply referred to as MAP) and MK-801.
(§3) Species: Male ICR mouse/number of animals (number of animals per group): 8 to 12 animals per group
(§4) The animal was left in a laboratory for 1 hour or longer to be acclimated to the environment, and the animal was taken from the feeding cage, orally administered with a compound to be tested, and then returned to the feeding cage. After 30 minutes, it was put into a cage for measurement, and the kinetic momentum of just the compound to be tested was measured. Further, after 30 minutes, the animal was taken out, and intraperitoneally administered with a drug for increasing kinetic momentum (MAP; 1 mg/kg or MK-801; 0.3 mg/kg, all dissolved in physiological saline), and its kinetic momentum was measured for a certain time (60 minutes) using a device for measuring the kinetic momentum by means of an infrared ray sensor (CompACT AMS, Muromachi Kikai Co., Ltd.). Also, the test was carried out under non-fasting.
(§5) The 60 minutes of measurements was classified into three groups: a first half 30 minutes, a second half 30 minutes, and a total 60 minutes. For a normal mouse (a mouse administered with physiological saline) and a mouse administered with the drug for increasing kinetic momentum, a Student's T test was used for evaluation in each interval. For the group administered with the compound to be tested, a solvent (vehicle) group and a Dunnett's T test were carried out and evaluated. For the evaluation, in case where there was a significant (P<0.05) difference for the total 60 minutes, it was considered to be effective.

[1] = tested on: MK-801-induced overactivity; test: MK-801-induced overactivity in mice, kinetic momentum by infrared sensor; type: in vivo; details: mouse, oral, MK-801 0.3 mg/kg i.p.
Experimental: as §1, §2, §3, §4, §5

[2] = tested on: scopolamine-induced spontaneous alternation behavior disorder; test: Scopolamine-induced spontaneous alternation behavior disorder in mice (Y-maze); type: in vivo; details: mouse, scopolamine 0.5 mg/kg i.p.
Experimental: An Improvement Effect for Scopolamine-Induced or MK-801-Induced Spontaneous Alternation Behavior in Mice
An improvement effect of the compound (I) for cognitive impairment was evaluated by the above-described well-known test method as a model of a short-term learning disorder.
Species: Male ddY mice/number of animals (number of animals per group): 6 to 10 animals per group
A mouse was introduced into the laboratory 1 hour before starting the test. The mouse was placed at one end of an arm in a Y-maze having equal lengths of arms in three directions, and was able freely explored for 8 minutes with the number of the entries into the arms were counted. Furthermore, a spontaneous alternation behavior was defined as consecutive entries into each of the three arms, and an alternation rate was defined as the percentage of the number of time of this behavior relative to the total number of the entries, and calculated by the following equation.
Alternation rate (%)=(number of spontaneous alternation behaviors/total number of entries−2)×100.
The compound to be tested was orally administered 50 minutes before the initiation of the test, and 30 minutes later, 0.5 mg/kg of scopolamine or 0.15 mg/kg of MK-801 (in the normal group, physiological saline) was intraperitoneally administered. Furthermore, for the normal group (the group administered with physiological saline) and the control group (the group administered with 0.5 mg/kg scopolamine or 0.15 mg/kg MK-801), a solvent (vehicle) was orally administered when the compound to be tested was administered. For the normal group, physiological saline was intraperitoneally administered when scopolamine was administered.
The alternation rate (%) is expressed as an average value in each group (mean±SE). In regard to the alternation rate (%), in the case where a significant difference between the normal group and the control group (Student's T test) was found, it was considered that there was an establishment of learning disorder by the administration of scopolamine or MK-801. By carrying out the Dunnett evaluation for the group administered with the compound to be tested relative to the control group, the presence or absence of the learning disorder action of the compound to be tested was determined. In each evaluation, it was considered that there was a tendency at p<0.10, and there was a significant difference at p<0.05.

human 5-HT5A receptor = molecular target: T1, human 5-HT5A receptor (Homo sapiens, UniProt P47898); test: Test of human 5-HT5A receptor binding inhibition ([3H]5-CT, HEK293 cell membrane); details: [3H]5-CT binding, membrane of HEK293 cell expressing human 5-HT5A receptor
T1 construct: expressed in transfected cells; membrane preparation
Experimental: An ORF of a human 5-HT5A receptor (Genbank AF498985) was cloned from a human hippocampal cDNA library, and then inserted into a pCR2.1 vector (Invitrogen), and Escherichia coli having the plasmid was mass cultured. Next, the human 5-HT5A receptor full-length cDNA sequence was analyzed, recombined into a pCDNA3.1 vector (Invitrogen) as an expression vector, and mass cultured. A human embryonic kidney-induced cell HEK293 cell (ATCC) was seeded, and the resulting expression plasmid (1 μg) above was added thereto together with LIPOFECTAMINE 2000 (Invitrogen; 2 μl), a gene was introduced into the HEK293 cell, and then Geneticin (G418 sulfate 500 μg/ml; Kanto Chemical Co., Inc.) was used as a drug-resistant marker to screen the expressing cell. Thus prepared gene-expressing recombinant cell was cultured in a D-MEM, 10% FCS, 1% Pc./Sm., 500 μg/ml G418 culture medium for 3 days. This experimental operation was conducted in accordance with a gene operation experiment manual of a known method (Sambrook, J. et al, Molecular Cloning-A Laboratory Manual“, Cold Spring Harabor Laboratory, NY, 1989), etc., an instruction appended in a reagent or the like.
(1) Preparation of a Membrane from an HEK293 Cell Forcibly Expressing a Human 5-HT5A Receptor
An HEK293 cell forcibly expressing a human 5-HT5A receptor was cultured in an F500 plate, and scraped for collection using a scraper. After centrifugation, the precipitates were collected and an incubation buffer (50 mM Tris (HCl) PH 7.4, 10 mM Mg504, 0.5 mM EDTA) was added thereto. After homogenization, it was further centrifuged, an incubation buffer was added to the precipitate, and the mixture was well suspended. These operations were repeatedly conducted, the protein concentration was then measured, and the preparation of a membrane was completed.
(2) Experiment on Human 5-HT5A Receptor Binding Inhibition
The compound to be tested (0.3 to 300 nM) and a 100 μM 5-CT solution in DMSO were added to a 96-well plate at 2 μl/well. The number of the wells to be measured under the same condition in one experiment was set at 2, and an average value thereof was used. It was suspended in an incubation buffer, and a HEK293 cell membrane forcibly expressing a human 5-HT5A receptor that had been prepared at 200 μg/ml was added thereto at 100 μl/well. The mixture was incubated at room temperature for 15 minutes, and a [^3H]5-CT solution (2 nM [^3H]5-CT, an incubation buffer) was then added thereto at 100 μl/well.
Separate from this, 100 μl of the solution was dispersed to a liquid scintillation vial, 2 ml of Aquasol II (registered trademark) was added thereto, followed by stirring, and the radioactivity was then measured with a liquid scintillation counter. The solution was incubated at 37° C. for 60 minutes. The reaction liquid was sucked to a 96-well GF/C filter plate that had been preliminarily treated with 0.2% polyethyleneimine, and washed six times with an ice-cooled 50 mM Tris (pH 7.5) buffer. The GF/C filter plate was dried.
MicroscintTMPS (registered trademark) was added thereto at 40 μl/well. The radioactivity remaining on the GF/C filter plate was measured in a top counter.
For the inhibitory activity for the binding of the [^3H]5-CT by the compound to be tested in each experiment, IC50 value was calculated by taking the radioactivity when only DMSO was added as 0% inhibition, and the radioactivity when 1 μM 5-CT was added as 100% inhibition. Apart from this, a Ki value was calculated from the Kd value of the [^3H]5-CT that had been determined by Scatchard analysis.
Ki=IC50 (1+Concentration of the ligands added/Kd (4.95 nM))

[3] = dose 0.01 mg/kg, total 60 minutes, P<0.05

T1 sequence (P47898 whole entry): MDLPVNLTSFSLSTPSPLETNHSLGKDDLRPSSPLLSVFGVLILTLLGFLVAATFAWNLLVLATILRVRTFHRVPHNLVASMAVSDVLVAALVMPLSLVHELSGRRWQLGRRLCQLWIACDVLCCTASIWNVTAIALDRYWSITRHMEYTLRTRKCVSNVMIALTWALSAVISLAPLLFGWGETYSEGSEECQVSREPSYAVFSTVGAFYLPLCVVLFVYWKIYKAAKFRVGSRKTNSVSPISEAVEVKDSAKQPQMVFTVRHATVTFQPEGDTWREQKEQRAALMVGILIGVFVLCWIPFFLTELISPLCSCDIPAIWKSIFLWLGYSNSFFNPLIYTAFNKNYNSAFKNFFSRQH

Compound: Cl.Cl.NC(N)=NC(=O)c1ccc2c3ccccc3n(C3CCNCC3)c2c1 [Example 6, N-(diaminomethylene)-9-piperidin-4-yl-9H-carbazole-2-carboxamide dihydrochloride]
- inhibition of MAP-induced overactivity (MAP-induced overactivity): significantly inhibited
- inhibition of MK-801-induced overactivity [1, 3]: significantly inhibited
- inhibition of scopolamine-induced spontaneous alternation behavior disorder ([2]; oral, dose 0.003 mg/kg): significantly inhibited
- pKi (human 5-HT5A receptor): ≥ 7.30

Compound: CC(=O)n1c2ccccc2c2ccc(C(=O)N=C(N)N)cc21 [Example 26]
- inhibition of scopolamine-induced spontaneous alternation behavior disorder ([2]; oral, dose 0.03 mg/kg): significantly inhibited
- pKi (human 5-HT5A receptor): ≥ 7.30

Compound: NC(N)=NC(=O)c1ccc2c3ccccc3n(Cc3ccccc3)c2c1 [Example 37]
- inhibition of MK-801-induced overactivity [1, 3]: significantly inhibited
- pKi (human 5-HT5A receptor): 8.08

Compound: CC(C)n1c2cc(C(=O)N=C(N)N)ccc2c2c(Cl)cccc21 [Example 59]
- inhibition of scopolamine-induced spontaneous alternation behavior disorder ([2]; oral, dose 0.03 mg/kg): significantly inhibited
- pKi (human 5-HT5A receptor): ≥ 7.30

Compound: NC(N)=NC(=O)c1ccc2c3c(F)cccc3n(C3CCOCC3)c2c1 [Example 86]
- inhibition of MAP-induced overactivity (MAP-induced overactivity): significantly inhibited
- inhibition of MK-801-induced overactivity [1, 3]: significantly inhibited
- inhibition of scopolamine-induced spontaneous alternation behavior disorder ([2]; oral, dose 0.0001 mg/kg): significantly inhibited
- pKi (human 5-HT5A receptor): 9.25

Compound: Cc1cc(C(=O)N=C(N)N)cc2c1c1ccccc1n2C1CCOCC1 [Example 106]
- inhibition of MAP-induced overactivity (MAP-induced overactivity): significantly inhibited
- inhibition of MK-801-induced overactivity ([1]; dose 0.03 mg/kg): significantly inhibited
- inhibition of scopolamine-induced spontaneous alternation behavior disorder ([2]; oral, dose 0.0001 mg/kg): significantly inhibited
- pKi (human 5-HT5A receptor): 9.57

Compound: NC(N)=NC(=O)c1ccc2c3ccccc3n(C3CCC(F)(F)CC3)c2c1 [Example 129]
- inhibition of MK-801-induced overactivity ([1]; dose 0.1 mg/kg): significantly inhibited
- pKi (human 5-HT5A receptor): ≥ 7.30

Compound: NC(N)=NC(=O)c1ccc2c3ccccc3n(Cc3cccs3)c2c1 [Example 135]
- inhibition of MAP-induced overactivity (MAP-induced overactivity): significantly inhibited
- inhibition of MK-801-induced overactivity [1, 3]: significantly inhibited
- inhibition of scopolamine-induced spontaneous alternation behavior disorder ([2]; oral, dose 0.003 mg/kg): significantly inhibited
- pKi (human 5-HT5A receptor): ≥ 7.30

Compound: Cc1cc(C(=O)N=C(N)N)cc2c1c1c(F)cccc1n2C1CCOCC1 [Example 138]
- inhibition of MK-801-induced overactivity [1, 3]: significantly inhibited
- pKi (human 5-HT5A receptor): ≥ 7.30

Compound: NC(N)=NC(=O)c1cc(F)c2c3c(F)cccc3n(C3CCOCC3)c2c1 [Example 146]
- inhibition of MK-801-induced overactivity [1, 3]: significantly inhibited
- pKi (human 5-HT5A receptor): ≥ 7.30

Compound: NC(N)=NC(=O)c1cc(Cl)c2c3ccccc3n(C3CCOCC3)c2c1 [Example 150]
- inhibition of MK-801-induced overactivity ([1]; dose 0.1 mg/kg): significantly inhibited
- pKi (human 5-HT5A receptor): ≥ 7.30

Compound: Cc1cccc2c1c1ccc(C(=O)N=C(N)N)cc1n2C1CC=C(F)CC1 (stereo not shown) [Example 161]
- inhibition of MK-801-induced overactivity ([1]; dose 0.1 mg/kg): significantly inhibited
- pKi (human 5-HT5A receptor): ≥ 7.30

Compound: N/C(=N\C(=O)c1ccc2c3ccccc3n(C3CCOCC3)c2c1)NCC1CC1 [Example 178]
- inhibition of MK-801-induced overactivity [1, 3]: significantly inhibited
- pKi (human 5-HT5A receptor): ≥ 7.30

Compound: COc1cccc(CN/C(N)=N/C(=O)c2ccc3c4ccccc4n(C4CCOCC4)c3c2)c1 [Example 194]
- inhibition of MK-801-induced overactivity ([1]; dose 0.03 mg/kg): significantly inhibited
- pKi (human 5-HT5A receptor): ≥ 7.30

Compound: COc1cc2c(cc1OC)C(=O)C(CC1CCN(Cc3ccccc3)CC1)C2 (stereo not shown) [donepezil, reference compound]
- inhibition of scopolamine-induced spontaneous alternation behavior disorder ([2]; dose 0.25 mg/kg): significantly inhibited
